Data published in patent US20230416227A1, “PLASMA KALLIKREIN INHIBITORS” (Merck Sharp & Dohme LLC, priority 2020, published 2023).

biological target: T1, Human plasma kallikrein (Homo sapiens, UniProt P03952); test: Plasma Kallikrein Assay; format: biochemical; conditions: purified Human plasma kallikrein 0.5 nM, substrate Acetyl-K-P-R-AFC, pH 7.4
T1 construct: yields a heavy chain (371 amino acids) and a light chain (248 amino acids); purchased Enzyme Research Laboratories
Protocol: The effectiveness of a compound of the present invention as an inhibitor of plasma kallikrein can be determined using a relevant purified serine protease, and an appropriate synthetic substrate. The rate of hydrolysis of the chromogenic or fluorogenic substrate by the relevant serine protease was measured both in the absence and presence of compounds of the present invention. Assays were conducted at rt or at 37° C. […] A decrease in the rate of fluorescence change in the presence of inhibitor is indicative of enzyme inhibition. Such methods are known to one skilled in the art. The results of this assay are expressed as the half-maximal inhibitory concentrations (IC50), or the inhibitory constant, Ki.
Plasma kallikrein determinations were made in 50 mM HEPES buffer at pH 7.4 containing 150 mM NaCl, 5 mM CaCl2), and 0.1% PEG 8000 (polyethylene glycol; Fisher Scientific). […]
Times required to achieve equilibration between enzyme and inhibitor were determined in control experiments. The reactions were performed under linear progress curve conditions and fluorescence increase measured at 405 Ex/510 Em nm. […] IC50 was determined by inflection point from a four parameter logistic curve fit. Ki was calculated using the Cheng Prusoff equation, Ki=IC50/(1+([S]/Km)).

T1 sequence (P03952 391-638 limits assumed): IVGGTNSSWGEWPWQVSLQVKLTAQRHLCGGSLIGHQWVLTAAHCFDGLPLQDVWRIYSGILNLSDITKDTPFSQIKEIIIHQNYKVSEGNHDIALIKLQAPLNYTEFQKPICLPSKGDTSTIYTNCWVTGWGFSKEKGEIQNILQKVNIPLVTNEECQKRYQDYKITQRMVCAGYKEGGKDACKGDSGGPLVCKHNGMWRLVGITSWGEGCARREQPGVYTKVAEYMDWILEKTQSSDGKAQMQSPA
T1 sequence (P03952 20-390 partner limits assumed): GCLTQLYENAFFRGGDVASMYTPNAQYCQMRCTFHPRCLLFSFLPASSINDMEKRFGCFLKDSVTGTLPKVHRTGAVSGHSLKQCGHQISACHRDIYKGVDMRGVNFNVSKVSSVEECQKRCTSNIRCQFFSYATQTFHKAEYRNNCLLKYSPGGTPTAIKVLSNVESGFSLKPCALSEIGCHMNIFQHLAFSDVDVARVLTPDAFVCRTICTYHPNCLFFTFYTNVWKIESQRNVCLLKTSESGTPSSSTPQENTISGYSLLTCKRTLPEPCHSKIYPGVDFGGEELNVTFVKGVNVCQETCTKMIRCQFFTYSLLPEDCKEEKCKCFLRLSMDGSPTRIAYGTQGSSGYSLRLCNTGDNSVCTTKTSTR

Compound	IC50 [nM]
O=C(Nc1cnn(Cc2ccc(N3CC[C@H]3CO)nc2)c1)c1cncc(-c2c(C(F)F)ccc(Cl)c2F)n1 [Example 126, (S)-6-(3-Chloro-6-(difluoromethyl)-2-fluorophenyl)-N-(1-((6-(2-(hydroxymethyl)azetidin-1-yl)pyridin-3-yl)methyl)-1H-pyrazol-4-yl)pyrazine-2-carboxamide]	30.5
CC(c1cnc(N(CCO)Cc2ccccn2)nc1)n1cc(NC(=O)c2cncc(-c3c(C(F)F)ccc(Cl)c3F)n2)cn1 (centres unmarked) [Example 85, 6-(3-Chloro-6-(difluoromethyl)-2-fluorophenyl)-N-(1-(1-(2-((2-hydroxyethyl)(pyridin-2-ylmethyl)amino)pyrimidin-5-yl)ethyl)-1H-pyrazol-4-yl)pyrazine-2-carboxamide]	11.8
CC(c1cnc(N2CC[C@H]2CN2CC[C@@H](O)C[C@@H]2C)nc1)n1cc(NC(=O)c2cncc(-c3c(C(F)F)ccc(Cl)c3F)n2)cn1 (stereo partly drawn) [Example 178, 6-(3-Chloro-6-(difluoromethyl)-2-fluorophenyl)-N-(1-(1-(2-((S)-2-(((2S,4R)-4-hydroxy-2-methylpiperidin-1-yl)methyl)azetidin-1-yl)pyrimidin-5-yl)ethyl)-1H-pyrazol-4-yl)pyrazine-2-carboxamide]	3.3
CC(c1cnc(N2CC[C@H]2CN2CC(O)(C3CC3)C2)nc1)n1cc(NC(=O)c2cncc(-c3c(C(F)F)ccc(Cl)c3F)n2)cn1 (stereo partly drawn) [Example 172, 6-(3-Chloro-6-(difluoromethyl)-2-fluorophenyl)-N-(1-(1-(2-((S)-2-((3-cyclopropyl-3-hydroxyazetidin-1-yl)methyl)azetidin-1-yl)pyrimidin-5-yl)ethyl)-1H-pyrazol-4-yl)pyrazine-2-carboxamide]	1.8
O=C(Nc1cnn(Cc2cnc(N3CCCC3CN3C[C@H](F)[C@@H](F)C3)nc2)c1)c1cncc(-c2c(C(F)F)ccc(Cl)c2F)n1 (stereo partly drawn) [Example 158, 6-(3-Chloro-6-(difluoromethyl)-2-fluorophenyl)-N-(1-((2-(2-(((35,4S)-3,4-difluoropyrrolidin-1-yl)methyl)pyrrolidin-1-yl)pyrimidin-5-yl)methyl)-1H-pyrazol-4-yl)pyrazine-2-carboxamide]	9.5
CC(c1cnc(N2CC[C@H]2[C@@H](C)N2CC[C@H](O)C2)nc1)n1cc(NC(=O)c2cncc(-c3c(C(F)F)ccc(Cl)c3F)n2)cn1 (stereo partly drawn) [Example 186, 6-(3-Chloro-6-(difluoromethyl)-2-fluorophenyl)-N-(1-(1-(2-((S)-2-((R)-1-((S)-3-hydroxypyrrolidin-1-yl)ethyl)azetidin-1-yl)pyrimidin-5-yl)ethyl)-1H-pyrazol-4-yl)pyrazine-2-carboxamide]	1.4
Cn1cnc(C2CCCN2c2ccc(Cn3cc(NC(=O)c4cncc(-c5c(C(F)F)ccc(Cl)c5F)n4)cn3)cn2)n1 (centres unmarked) [Example 130, 6-(3-Chloro-6-(difluoromethyl)-2-fluorophenyl)-N-(1-((6-(2-(1-methyl-1H-1,2,4-triazol-3-yl)pyrrolidin-1-yl)pyridin-3-yl)methyl)-1H-pyrazol-4-yl)pyrazine-2-carboxamide]	35
O=C(Nc1cnn(Cc2cnc(N3CCCC3Cn3ccnc3)nc2)c1)c1cncc(-c2c(C(F)F)ccc(Cl)c2F)n1 (centres unmarked) [Example 109, N-(1-((2-(2-((1H-Imidazol-1-yl)methyl)pyrrolidin-1-yl)pyrimidin-5-yl)methyl)-1H-pyrazol-4-yl)-6-(3-chloro-6-(difluoromethyl)-2-fluorophenyl)pyrazine-2-carboxamide]	45.9
CC(c1cnc(N2CC[C@H]2[C@@H](C)N2CC(C)(O)C2)nc1)n1cc(NC(=O)c2cncc(-c3c(C(F)F)ccc(Cl)c3F)n2)cn1 (stereo partly drawn) [Example 190, 6-(3-Chloro-6-(difluoromethyl)-2-fluorophenyl)-N-(1-(1-(2-((S)-2-((R)-1-(3-hydroxy-3-methylazetidin-1-yl)ethyl)azetidin-1-yl)pyrimidin-5-yl)ethyl)-1H-pyrazol-4-yl)pyrazine-2-carboxamide]	3.5
O=C(Nc1cnn(Cc2cnc(N3CCC4OCCC43)nc2)c1)c1cncc(-c2c(C(F)F)ccc(Cl)c2F)n1 (single isomer, unassigned) [Example 103, 6-(3-Chloro-6-(difluoromethyl)-2-fluorophenyl)-N-(1-((2-((3aS,6aS or 3aR,6aR)-hexahydro-4H-furo[3,2-b]pyrrol-4-yl)pyrimidin-5-yl)methyl)-1H-pyrazol-4-yl)pyrazine-2-carboxamide]	31.3
Cc1nc(N2CCC2)cnc1Cn1cc(NC(=O)c2cncc(-c3c(C(F)F)ccc(Cl)c3F)n2)cn1 [Example 24, N-(1-((5-(Azetidin-1-yl)-3-methylpyrazin-2-yl)methyl)-1H-pyrazol-4-yl)-6-(3-chloro-6-(difluoromethyl)-2-fluorophenyl)pyrazine-2-carboxamide]	26.8
CC(c1cnc(N2CC[C@H]2CN2C[C@H](O)C[C@H]2C)nc1)n1cc(NC(=O)c2cncc(-c3c(C(F)F)ccc(Cl)c3F)n2)cn1 (stereo partly drawn) [Example 164, 6-(3-Chloro-6-(difluoromethyl)-2-fluorophenyl)-N-(1-(1-(2-((S)-2-(((2R,4R)-4-hydroxy-2-methylpyrrolidin-1-yl)methyl)azetidin-1-yl)pyrimidin-5-yl)ethyl)-1H-pyrazol-4-yl)pyrazine-2-carboxamide]	3.4
C[C@@H](c1cnc(N2C[C@@H]3C[C@@H]3[C@@H]2CO)nc1)n1cc(NC(=O)c2cncc(-c3c(C(F)F)ccc(Cl)c3F)n2)cn1 (single isomer, unassigned) [Example 86, 6-(3-Chloro-6-(difluoromethyl)-2-fluorophenyl)-N-(1-((S or R)-1-(2-((1S,2R,5R or 1R,2S,5S)-2-(hydroxymethyl)-3-azabicyclo[3.1.0]hexan-3-yl)pyrimidin-5-yl)ethyl)-1H-pyrazol-4-yl)pyrazine-2-carboxamide]	13.3
CC(c1cnc(N2CC[C@H]2CN[C@H](C)C(C)(C)O)nc1)n1cc(NC(=O)c2cncc(-c3c(C(F)F)ccc(Cl)c3F)n2)cn1 (stereo partly drawn) [Example 182, 6-(3-Chloro-6-(difluoromethyl)-2-fluorophenyl)-N-(1-(1-(2-((S)-2-((((R)-3-hydroxy-3-methylbutan-2-yl)amino)methyl)azetidin-1-yl)pyrimidin-5-yl)ethyl)-1H-pyrazol-4-yl)pyrazine-2-carboxamide]	6.1
C[C@H](c1cnc(N2C[C@H]3C[C@H]3[C@H]2C#N)nc1)n1cc(NC(=O)c2cncc(-c3c(C(F)F)ccc(Cl)c3F)n2)cn1 (single isomer, unassigned) [Example 196]	4.7
CC(c1cnc(N2CC[C@H]2CN2CC(O)C2)nc1)n1cc(NC(=O)c2cncc(-c3c(C(F)F)ccc(Cl)c3F)n2)cn1 (stereo partly drawn) [Example 170, 6-(3-Chloro-6-(difluoromethyl)-2-fluorophenyl)-N-(1-(1-(2-((S)-2-((3-hydroxyazetidin-1-yl)methyl)azetidin-1-yl)pyrimidin-5-yl)ethyl)-1H-pyrazol-4-yl)pyrazine-2-carboxamide]	1.6
O=C(Nc1cnn(Cc2cnc(N3CCC4OCCC43)nc2)c1)c1cncc(-c2c(C(F)F)ccc(Cl)c2F)n1 (centres unmarked) [Example 75, 6-(3-Chloro-6-(difluoromethyl)-2-fluorophenyl)-N-(1-((2-(hexahydro-4H-furo[3,2-b]pyrrol-4-yl)pyrimidin-5-yl)methyl)-1H-pyrazol-4-yl)pyrazine-2-carboxamide]	5
